Data: patent US20240360126A1, “PYRAZOLO[3,4-B]PYRIDINE COMPOUNDS FOR THE TREATMENT OF AUTOIMMUNE DISEASE” (Hoffmann-La Roche Inc., priority 2021, published 2024)
Like-named read-outs stand apart in the source and are kept apart here.

How the values were obtained:
hERG K+ channel = target: T1, hERG K+ channel (Homo sapiens, UniProt Q12809); experiment: hERG channel inhibition assay (patch-clamp, CHO-hERG cells); type: cell-based; settings: for IC50 / IC20: CHO-hERG cells, whole-cell patch-clamp; for IC20: human, CHO cells stably expressing hERG; for hERG IC20/TLR7 IC50 / hERG IC20/TLR8 IC50 / hERG IC20/TLR9 IC50: safety ratio
T1 construct: expressed in transfected cells; host or cells: CHO (Chinese hamster ovary)
Description: The hERG K^+ channels were cloned in humans and stably expressed in a CHO (Chinese hamster ovary) cell line. CHOhERG cells were used for patch-clamp (voltage-clamp, whole-cell) experiments. Cells were stimulated by a voltage pattern to activate hERG channels and conduct IKhERG Currents (rapid delayed outward rectifier potassium current of the hERG channel). After the cells were stabilized for a few minutes, the amplitude and kinetics of IKhERG were recorded at a stimulation frequency of 0.1 Hz (6 bpm). Thereafter, the test compound was added to the preparation at increasing concentrations. For each concentration, an attempt was made to reach a steady-state effect, usually, this was achieved within 3-10 min at which time the next highest concentration was applied. The amplitude and kinetics of IKhERG are recorded in each concentration of the drug which were compared to the control values (taken as 100%). (references: Redfe W S, Carlsson L, Davis A S, Lynch W G, MacKenzie I, Palethorpe S, Siegl P K, Strang I, Sullivan A T, Wallis R, Camm A J, Hammond T G. 2003; Relationships between preclinical cardiac electrophysiology, clinical QT interval prolongation and torsade de pointes for a broad range of drugs: evidence for a provisional safety margin in drug development. Cardiovasc. Res. 58:32-45, Sanguinetti M C, Tristani-Firouzi M. 2006; hERG potassium channels and cardiac arrhythmia. Nature 440:463-469, Webster R, Leishman D, Walker D. 2002; Towards a drug concentration effect relationship for QT prolongation and torsades de pointes. Curr. Opin. Drug Discov. Devel. 5:116-26).

[1] = Single dose pharmacokinetics (PK) study in male Wister-Han rats; type: in vivo; settings: rat; for clearance / half-life / AUC(0-t) / Vd / Cmax: male, Wister-Han, plasma; for Vd: read-out: Vss; for F: dose normalized AUC0-last after IV and PO dose
Description: Pharmacokinetic properties of selected compounds were assessed by single dose PK studies in Male Wister-Han Rats (vendor: Beijing Vital River Laboratory Animal Technology Co., Ltd). Briefly, two groups of animals were administered a single dose of respective compound intravenously (IV, bolus) at 2 mg/kg or orally (PO, by gavage) at 10 mg/kg. Blood samples (approximately 150 μL) were collected via Jugular vein at 5 min (only for IV), 15 min, 30 min, 1 h, 2 h, 4 h, 7 h and 24 h post-dose. Blood samples were placed into tubes containing EDTA-K2 anticoagulant and centrifuged at 3000 rpm for 15 min at 4° C. to separate plasma from the samples. After centrifugation, the resulting plasma was transferred to clean tubes for bioanalysis with LC/MS/MS. The pharmacokinetic parameters were calculated using non-compartmental analysis. The volume of distribution (Vss), half-life (T1/2) and clearance (CL) were obtained based on the plasma concentration-time curve after IV dose. The peak concentration (Cmax) was recorded directly from experimental observations after PO dose. The area under the plasma concentration-time curve (AUC0-last) was calculated using the linear trapezoidal rule up to the last detectable concentration. The bioavailability (F) was calculated based on the dose normalized AUC0-last after IV and PO dose.
The Vss of a drug represents the degree to which a drug is distributed in body tissue rather than the plasma. Vss is directly proportional with the amount of drug distributed into tissue. A higher Vss indicates a greater amount of tissue distribution.

[2] = IV 2 mg/kg, read-out: IV AUC0-last
[3] = PO 10 mg/kg, read-out: PO AUC0-last

T1 sequence (Q12809 whole entry): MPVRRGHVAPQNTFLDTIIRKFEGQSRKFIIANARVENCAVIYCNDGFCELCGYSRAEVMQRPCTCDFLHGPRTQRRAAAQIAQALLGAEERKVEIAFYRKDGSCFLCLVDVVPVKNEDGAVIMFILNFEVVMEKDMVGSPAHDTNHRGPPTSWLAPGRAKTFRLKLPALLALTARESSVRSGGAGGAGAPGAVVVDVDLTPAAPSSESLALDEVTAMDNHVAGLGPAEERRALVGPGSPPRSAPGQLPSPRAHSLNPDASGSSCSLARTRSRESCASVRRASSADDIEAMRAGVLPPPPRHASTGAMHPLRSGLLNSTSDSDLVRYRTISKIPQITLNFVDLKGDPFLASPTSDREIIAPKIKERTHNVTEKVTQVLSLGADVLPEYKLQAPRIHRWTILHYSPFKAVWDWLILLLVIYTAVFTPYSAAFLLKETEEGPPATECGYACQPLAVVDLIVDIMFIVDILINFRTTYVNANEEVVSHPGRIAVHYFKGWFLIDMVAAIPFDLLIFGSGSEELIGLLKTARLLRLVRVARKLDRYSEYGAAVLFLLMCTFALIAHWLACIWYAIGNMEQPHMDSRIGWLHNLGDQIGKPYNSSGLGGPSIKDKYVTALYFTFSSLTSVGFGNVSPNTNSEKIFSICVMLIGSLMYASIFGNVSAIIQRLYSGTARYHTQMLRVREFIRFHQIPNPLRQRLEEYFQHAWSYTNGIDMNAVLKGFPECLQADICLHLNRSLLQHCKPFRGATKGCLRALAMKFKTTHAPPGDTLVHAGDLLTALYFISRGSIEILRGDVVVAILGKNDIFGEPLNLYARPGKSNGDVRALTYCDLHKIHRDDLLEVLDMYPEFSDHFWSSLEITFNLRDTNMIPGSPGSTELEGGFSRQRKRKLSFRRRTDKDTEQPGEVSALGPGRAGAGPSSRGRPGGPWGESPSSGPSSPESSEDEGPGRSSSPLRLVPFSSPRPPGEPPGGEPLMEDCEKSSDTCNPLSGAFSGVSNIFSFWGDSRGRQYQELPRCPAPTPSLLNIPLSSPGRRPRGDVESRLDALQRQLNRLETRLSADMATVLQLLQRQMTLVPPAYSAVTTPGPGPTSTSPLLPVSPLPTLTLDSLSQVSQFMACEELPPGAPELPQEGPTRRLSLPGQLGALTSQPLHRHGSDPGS

| SMILES | IC50 (hERG K+ channel) [µM] | IC20 (hERG K+ channel) [µM] | hERG IC20/TLR7 IC50 (hERG K+ channel) | hERG IC20/TLR8 IC50 (hERG K+ channel) | hERG IC20/TLR9 IC50 (hERG K+ channel) | clearance ([1]; IV 2 mg/kg) [mL/min/kg] | half-life ([1]; IV 2 mg/kg) [min] | AUC(0-t) [1, 2] [ng·h/mL] | Vd ([1]; IV 2 mg/kg) [L/kg] | Cmax ([1]; PO 10 mg/kg) [ng/mL] | AUC(0-t) [1, 3] [ng·h/mL] | F [1] [%] |
| --- | --- | --- | --- | --- | --- | --- | --- | --- | --- | --- | --- | --- |
| Cc1cc(N2CC[C@H](c3ccc(N4CCOC[C@@H](N)C4)cn3)[C@@H](C)C2)c2cnn(C)c2n1 [Example 40, (6S)-4-[6-[(3R,4S)-1-(1,6-dimethylpyrazolo[3,4-b]pyridin-4-yl)-3-methyl-4-piperidyl]-3-pyridyl]-1,4-oxazepan-6-amine] | > 20 | 5.9 | 655.6 | 842.9 | 34.1 | 32.8 | 436 | 1060 | 13.2 | 216 | 2840 | 53.4 |
| Cc1cc(N2CC[C@@H](c3ncc(N4CC(C)(N)C4)cc3C)[C@H](C)C2)c2cnn(C)c2n1 [Example 32, 1-[6-[(3S,4R)-1-(1,6-dimethylpyrazolo[3,4-b]pyridin-4-yl)-3-methyl-4-piperidyl]-5-methyl-3-pyridyl]-3-methyl-azetidin-3-amine] | > 10 | 4.4 | 550.0 | 293.3 | 23.7 | – | – | – | – | – | – | – |
| Cc1cc(N2CCNCC2)ncc1C1CCN(c2ccnc3c2cnn3C)CC1 [Example 6, 1-methyl-4-[4-(4-methyl-6-piperazin-1-yl-3-pyridyl)-1-piperidyl]pyrazolo[3,4-b]pyridine] | > 10 | 4.4 | 628.6 | 118.9 | 21.2 | – | – | – | – | – | – | – |
| CO[C@@H]1CN(c2cnc([C@@H]3CCN(c4cc(C)nc5c4cnn5C)C[C@H]3C)c(C)c2)C[C@H]1N [Example 26, (3R,4R)-1-[6-[(3S,4R)-1-(1,6-dimethylpyrazolo[3,4-b]pyridin-4-yl)-3-methyl-4-piperidyl]-5-methyl-3-pyridyl]-4-methoxy-pyrrolidin-3-amine] | > 20 | > 10 | >833.3 | >714.3 | >91.7 | 10.3 | 942 | 2200 | 12.5 | 620 | 9260 | 84.3 |
| Cc1cc(N2CC[C@@H](c3ncc(N4C[C@H]5NCCO[C@@H]5C4)cc3C)[C@H](C)C2)c2cnn(C)c2n1 [Example 33, (4aR,7aR)-6-[6-[(3S,4R)-1-(1,6-dimethylpyrazolo[3,4-b]pyridin-4-yl)-3-methyl-4-piperidyl]-5-methyl-3-pyridyl]-3,4,4a,5,7,7a-hexahydro-2H-pyrrolo[3,4-b][1,4]oxazine] | > 10 | 4.1 | 372.7 | 1366.7 | 51.9 | – | – | – | – | – | – | – |
| Cc1cc(N2CC[C@H](c3ccc(N4CC(C)(N)C4)cn3)[C@@H](C)C2)c2cnn(C)c2n1 [Example 43, 1-[6-[(3R,4S)-1-(1,6-dimethylpyrazolo[3,4-b]pyridin-4-yl)-3-methyl-4-piperidyl]-3-pyridyl]-3-methyl-azetidin-3-amine] | > 20 | > 10 | >625.0 | >1666.7 | >49.3 | – | – | – | – | – | – | – |
| Cc1cc(N2CCC(c3ccc(N4CCNCC4)cn3)CC2)c2cnn(C)c2n1 [Example 2, 1,6-dimethyl-4-[4-(5-piperazin-1-yl-2-pyridyl)-1-piperidyl]pyrazolo[3,4-b]pyridine] | > 20 | > 10 | >370.4 | >476.2 | >70.4 | – | – | – | – | – | – | – |
| Cc1cc(N2CCC(c3cnc(N4CCNCC4)nc3C)CC2)c2cnn(C)c2n1 [Example 11, 1,6-dimethyl-4-[4-(4-methyl-2-piperazin-1-yl-pyrimidin-5-yl)-1-piperidyl]pyrazolo[3,4-b]pyridine] | > 20 | 7.5 | 202.7 | 178.6 | 72.1 | – | – | – | – | – | – | – |
| Cc1cc(N2CCC(c3ccc(N4CCNCC4)cc3)CC2)c2cnn(C)c2n1 [Example 1, 1,6-dimethyl-4-[4-(4-piperazin-1-ylphenyl)-1-piperidyl]pyrazolo[3,4-b]pyridine] | > 10 | 4 | 75.5 | 333.3 | 14.5 | – | – | – | – | – | – | – |
| COC[C@H]1CN(c2ccc([C@H]3CCN(c4cc(C)nc5c4cnn5C)C[C@@H]3C)nc2)CCN1 [Example 37, 4-[(3R,4S)-4-[5-[(3R)-3-(methoxymethyl)piperazin-1-yl]-2-pyridyl]-3-methyl-1-piperidyl]-1,6-dimethyl-pyrazolo[3,4-b]pyridine] | > 20 | > 10 | >1111.1 | >769.2 | >30.1 | – | – | – | – | – | – | – |
| Cc1cc(N2CC[C@H](c3ccc(N4CC5(CNCCO5)C4)cn3)[C@@H](C)C2)c2cnn(C)c2n1 [Example 38, 2-[6-[(3R,4S)-1-(1,6-dimethylpyrazolo[3,4-b]pyridin-4-yl)-3-methyl-4-piperidyl]-3-pyridyl]-5-oxa-2,8-diazaspiro[3.5]nonane] | > 20 | 5.2 | 400.0 | 472.7 | 27.1 | – | – | – | – | – | – | – |
| Cc1cc(N2CC[C@@H](c3ncc(N4CCOC[C@@H](N)C4)cc3C)[C@H](C)C2)c2cnn(C)c2n1 [Example 28, (6S)-4-[6-[(3S,4R)-1-(1,6-dimethylpyrazolo[3,4-b]pyridin-4-yl)-3-methyl-4-piperidyl]-5-methyl-3-pyridyl]-1,4-oxazepan-6-amine] | > 20 | 6.4 | 914.3 | 3200.0 | 50.8 | 30.2 | 530 | 974 | 16.7 | 122 | 1800 | 37 |
| COC[C@H]1CN(c2cnc([C@@H]3CCN(c4cc(C)nc5c4cnn5C)C[C@H]3C)c(C)c2)CCN1 [Example 29, 4-[(3S,4R)-4-[5-[(3R)-3-(methoxymethyl)piperazin-1-yl]-3-methyl-2-pyridyl]-3-methyl-1-piperidyl]-1,6-dimethyl-pyrazolo[3,4-b]pyridine] | > 10 | 4.4 | 880.0 | 550.0 | 18.5 | – | – | – | – | – | – | – |
| CO[C@@H]1CN(c2ccc([C@H]3CCN(c4cc(C)nc5c4cnn5C)C[C@@H]3C)nc2)C[C@H]1N [Example 36, (3R,4R)-1-[6-[(3R,4S)-1-(1,6-dimethylpyrazolo[3,4-b]pyridin-4-yl)-3-methyl-4-piperidyl]-3-pyridyl]-4-methoxy-pyrrolidin-3-amine] | > 20 | > 10 | >555.6 | >476.2 | >58.8 | – | – | – | – | – | – | – |
| Cc1cc(N2CC[C@H](c3ccc(N4CCNCC4)cn3)[C@@H](C)C2)c2cnn(C)c2n1 [Example 35, 1,6-dimethyl-4-[(3R,4S)-3-methyl-4-(5-piperazin-1-yl-2-pyridyl)-1-piperidyl]pyrazolo[3,4-b]pyridine] | > 10 | 4.4 | 733.3 | 488.9 | 27.8 | – | – | – | – | – | – | – |
| Cc1cc(N2CCC(c3ncc(N4CCNCC4)cc3C)[C@H](C)C2)c2cnn(C)c2n1 (single isomer, unassigned) [Example 25, 1,6-dimethyl-4-[trans-3-methyl-4-(3-methyl-5-piperazin-1-yl-2-pyridyl)-1-piperidyl]pyrazolo[3,4-b]pyridine] | > 20 | > 10 | >1111.1 | >1428.6 | >102.0 | – | – | – | – | – | – | – |
